{"source": "patent US11484035B2", "about": "“Synergistic composition of a nematicide” (TELLURIS BIOTECH INDIA PRIVATE LIMITED, priority 2017, dated 2022)", "origin": "cited, not measured here", "test_system": "nematodes", "conditions": "individual peptides", "data": [{"sequence": "DLLRPVVIAPQFSRQ (Caenorhabditis elegans) [Peptide 2, 15 amino acid peptide, 99-113 amino acid stretch of CED-4 protein]", "values": [{"measurement": "effective concentration for nematicidal activity", "value": "about 1 mg/ml"}]}, {"sequence": "FPKFMQLHQKFY (Caenorhabditis elegans) [Peptide 12, 12 amino acid peptide, 529-540 amino acid stretch of CED-4 protein]", "values": [{"measurement": "effective concentration for nematicidal activity", "value": "about 1 mg/ml"}]}, {"sequence": "RQMLDRKLLLGNVPKQMTC (Caenorhabditis elegans) [Peptide 3, 19 amino acid peptide, 112-130 amino acid stretch of CED-4 protein]", "values": [{"measurement": "effective concentration for nematicidal activity", "value": "about 1 mg/ml"}]}]}
